In PMC5430744 (Scientific Reports, 2017):
Like-named read-outs stand apart in the source and are kept apart here.

Experiments:
[1] = biological target: T1, Smon0121-Smon0122(10xHis)/Smon0120-Smon0120 (Streptobacillus moniliformis, UniProt D1AWD7); details: detergent-solubilised transporter
T1 construct: gene Smon_0120

Smon0123 = Smon0123 (Streptobacillus moniliformis, UniProt D1AWE0); assay: X-ray crystal structure; tryptophan fluorescence titration; DSF; format: binding; set-up: gene Smon_0123; Smon0123 (N-18/C-5) in the crystal; recombinant Smon0123 in solution
Chain of Smon0123 (D1AWE0 entry or part of it): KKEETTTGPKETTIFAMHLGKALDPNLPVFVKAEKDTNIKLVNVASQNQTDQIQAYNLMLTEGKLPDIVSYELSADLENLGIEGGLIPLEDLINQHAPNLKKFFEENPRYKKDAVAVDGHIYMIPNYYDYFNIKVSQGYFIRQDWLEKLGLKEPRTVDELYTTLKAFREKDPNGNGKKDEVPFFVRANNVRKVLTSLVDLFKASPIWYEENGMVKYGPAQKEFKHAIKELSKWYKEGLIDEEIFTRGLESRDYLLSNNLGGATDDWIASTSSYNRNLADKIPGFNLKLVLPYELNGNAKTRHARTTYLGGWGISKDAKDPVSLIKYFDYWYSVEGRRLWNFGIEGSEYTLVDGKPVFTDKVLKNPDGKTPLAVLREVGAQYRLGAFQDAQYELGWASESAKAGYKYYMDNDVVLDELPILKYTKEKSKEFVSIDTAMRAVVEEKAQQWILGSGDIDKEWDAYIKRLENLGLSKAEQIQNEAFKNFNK

Smon0127 = biological target: T2, Smon0127 (Streptobacillus moniliformis, UniProt D1AWE4); assay: UGL enzyme assay, decrease of absorbance at […] nm; format: biochemical
T2 construct: gene Smon_0127; recombinant Smon0127
T2 sequence (D1AWE4 entry or part of it): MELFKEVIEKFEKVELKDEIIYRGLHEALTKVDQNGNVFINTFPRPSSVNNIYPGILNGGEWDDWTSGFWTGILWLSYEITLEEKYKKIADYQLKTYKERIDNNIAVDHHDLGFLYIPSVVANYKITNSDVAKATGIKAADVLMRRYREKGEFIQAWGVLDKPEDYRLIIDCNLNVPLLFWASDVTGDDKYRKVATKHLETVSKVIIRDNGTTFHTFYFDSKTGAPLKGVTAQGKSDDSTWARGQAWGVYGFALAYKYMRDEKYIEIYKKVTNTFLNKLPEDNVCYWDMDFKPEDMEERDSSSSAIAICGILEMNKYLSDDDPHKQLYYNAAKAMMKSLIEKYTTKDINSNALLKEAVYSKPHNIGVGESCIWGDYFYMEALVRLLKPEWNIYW

T1 sequence (D1AWD7 entry or part of it): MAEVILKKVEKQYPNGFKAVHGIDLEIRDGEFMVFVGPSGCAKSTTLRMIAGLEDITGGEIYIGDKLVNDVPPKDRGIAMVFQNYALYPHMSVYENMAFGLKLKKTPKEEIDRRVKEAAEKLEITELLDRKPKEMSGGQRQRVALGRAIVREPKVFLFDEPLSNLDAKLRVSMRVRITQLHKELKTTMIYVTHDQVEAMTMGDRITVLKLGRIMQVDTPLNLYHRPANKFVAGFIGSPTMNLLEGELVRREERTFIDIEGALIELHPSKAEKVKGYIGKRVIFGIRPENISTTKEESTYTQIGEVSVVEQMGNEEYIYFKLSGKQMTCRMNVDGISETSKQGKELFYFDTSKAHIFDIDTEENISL
T1 sequence (D1AWD8 entry or part of it, further chain): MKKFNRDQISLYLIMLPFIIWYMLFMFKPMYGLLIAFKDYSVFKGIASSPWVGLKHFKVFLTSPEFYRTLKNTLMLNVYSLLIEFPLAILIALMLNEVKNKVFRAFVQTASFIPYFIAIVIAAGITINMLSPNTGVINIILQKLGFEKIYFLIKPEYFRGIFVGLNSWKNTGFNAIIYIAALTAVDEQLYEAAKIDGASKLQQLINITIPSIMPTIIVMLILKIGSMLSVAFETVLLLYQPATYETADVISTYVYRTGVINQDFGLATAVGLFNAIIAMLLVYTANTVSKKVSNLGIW
T1 sequence (D1AWD9 entry or part of it, further chain): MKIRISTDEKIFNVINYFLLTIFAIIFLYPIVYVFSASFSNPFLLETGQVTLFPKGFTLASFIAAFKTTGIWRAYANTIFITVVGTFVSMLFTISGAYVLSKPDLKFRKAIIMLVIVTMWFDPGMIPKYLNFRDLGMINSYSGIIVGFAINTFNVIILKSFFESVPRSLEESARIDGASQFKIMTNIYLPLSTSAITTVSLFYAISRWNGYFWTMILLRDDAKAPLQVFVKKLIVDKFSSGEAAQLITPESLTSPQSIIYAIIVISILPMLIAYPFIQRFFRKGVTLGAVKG

Compound	phosphate release from ATP [1]	Kd (Smon0123; read-out: Kd) [nM]	UGL enzyme assay, decrease of absorbance at 235 nm (Smon0127) [units/mg]	Kd (Smon0123)
Nc1ncnc2c1ncn2[C@@H]1O[C@H](COP(=O)(O)OP(=O)(O)OP(=O)(O)O)[C@@H](O)[C@H]1O [ATP]	in the soluble form with detergents exhibited ATPase activity			
CC(=O)N[C@H]1C(O)O[C@H](CO)[C@H](O)[C@@H]1O[C@@H]1OC(C(=O)O)=C[C@H](O)[C@H]1O (stereo partly shown) [CΔ0S]		635 ± 122	4.46	
CC(=O)N[C@H]1C(O)O[C@H](CO)[C@H](OS(=O)(=O)O)[C@@H]1O[C@@H]1OC(C(=O)O)=C[C@H](O)[C@H]1O (stereo partly shown) [CΔ4S]			0.342	
CC(=O)N[C@H]1C(O)O[C@H](COS(=O)(=O)O)[C@H](O)[C@@H]1O[C@@H]1OC(C(=O)O)=C[C@H](O)[C@H]1O (stereo partly shown) [CΔ6S]			0.272	5GX6 for Smon0123/C∆4S, 5GX7 for Smon0123/C∆6S
CC(=O)N[C@H]1C(O)O[C@H](CO)[C@@H](O)[C@@H]1O[C@@H]1OC(C(=O)O)=C[C@H](O)[C@H]1O (stereo partly shown) [ΔHA]			2.26	
